Laboratory results reported in PubChem BioAssay AID330 (DTP/NCI, 2004).
Where “and” joins values, the source holds several entries; their conditions need not be identical. Equal values may be shown once. Toxic doses and inconclusive results are not listed. Rule for the calls: active = survival T/C of 150% or more; inactive = T/C below 125% in these data. Peptide text beside a SMILES is read from it.

Tested on: P388 leukemia ip, CD2F1 mice, survival T/C
Experiment: NCI In Vivo Anticancer Drug Screen. Data for tumor model P388 Leukemia (intraperitoneal) in CD2F1 (CDF1) mice
Details: endpoint: median survival time, higher = longer survival
Method in brief: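 Mice carrying the transplanted tumor received test compound or vehicle. Survival was recorded in each group, and the value is the treated-group measurement divided by that of the vehicle-treated control group.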

[1] = dose: 100.0 mg/kg/injection, schedule: Q01DX001 (ip), vehicle: saline
[2] = dose: 200.0 mg/kg/injection, schedule: Q01DX001 (ip), vehicle: saline
[3] = dose: 400.0 mg/kg/injection, schedule: Q01DX001 (ip), vehicle: saline
[4] = dose: 50.0 mg/kg/injection, schedule: Q01DX005 (ip), vehicle: Klucel (hydroxypropylcellulose) (HPC)
[5] = dose: 100.0 mg/kg/injection, schedule: Q01DX005 (ip), vehicle: Klucel (hydroxypropylcellulose) (HPC)
[6] = dose: 200.0 mg/kg/injection, schedule: Q01DX005 (ip), vehicle: Klucel (hydroxypropylcellulose) (HPC)
[7] = dose: 50.0 mg/kg/injection, schedule: Q01DX005 (ip), vehicle: saline with Tween-80
[8] = dose: 100.0 mg/kg/injection, schedule: Q01DX005 (ip), vehicle: saline with Tween-80
[9] = dose: 200.0 mg/kg/injection, schedule: Q01DX005 (ip), vehicle: saline with Tween-80
[10] = dose: 100.0 mg/kg/injection, schedule: Q01DX001 (ip), vehicle: saline with Tween-80
[11] = dose: 200.0 mg/kg/injection, schedule: Q01DX001 (ip), vehicle: saline with Tween-80
[12] = dose: 400.0 mg/kg/injection, schedule: Q01DX001 (ip), vehicle: saline with Tween-80
[13] = dose: 100.0 mg/kg/injection, schedule: Q01DX009 (ip), vehicle: saline with Tween-80
[14] = dose: 100.0 mg/kg/injection, schedule: Q04DX003 (ip), vehicle: saline with Tween-80
[15] = dose: 200.0 mg/kg/injection, schedule: Q01DX009 (ip), vehicle: saline with Tween-80
[16] = dose: 200.0 mg/kg/injection, schedule: Q04DX003 (ip), vehicle: saline with Tween-80
[17] = dose: 400.0 mg/kg/injection, schedule: Q04DX003 (ip), vehicle: saline with Tween-80
[18] = dose: 50.0 mg/kg/injection, schedule: Q01DX009 (ip), vehicle: saline with Tween-80
[19] = dose: 60.0 mg/kg/injection, schedule: Q01DX005 (ip), vehicle: Klucel (hydroxypropylcellulose) (HPC)
[20] = dose: 240.0 mg/kg/injection, schedule: Q01DX005 (ip), vehicle: Klucel (hydroxypropylcellulose) (HPC)
[21] = dose: 25.0 mg/kg/injection, schedule: Q01DX009 (ip), vehicle: Klucel (hydroxypropylcellulose) (HPC)

Measured: T/C

CC(=S)NC(=O)NC(=O)c1ccc(C)cc1
inactive: [1] 102 % of control and 104 % of control | [2] 112 % of control and 96 % of control | [3] 112 % of control and 97 % of control

O=C1N=c2ccc(Br)cc2=C1c1sc(=O)n(Cc2nc3ccccc3[nH]2)c1O
inactive: dose: 100.0 mg/kg/injection, schedule: Q01DX001 (ip), vehicle: Klucel (hydroxypropylcellulose) (HPC) 95 % of control | dose: 200.0 mg/kg/injection, schedule: Q01DX001 (ip), vehicle: Klucel (hydroxypropylcellulose) (HPC) 93 % of control | dose: 400.0 mg/kg/injection, schedule: Q01DX001 (ip), vehicle: Klucel (hydroxypropylcellulose) (HPC) 90 % of control

CC(C)(C)c1cc2c(O)c(c1)Cc1cc(C(C)(C)C)cc(c1O)Cc1cc(C(C)(C)C)cc(c1O)Cc1cc(C(C)(C)C)cc(c1O)Cc1cc(C(C)(C)C)cc(c1O)Cc1cc(C(C)(C)C)cc(c1O)C2
inactive: [4] 99 % of control | [5] 92 % of control | [6] 92 % of control

CSc1nc(Cl)c2cn[nH]c2n1
inactive: dose: 100.0 mg/kg/injection, schedule: Q04DX002 (ip), vehicle: water 116 % of control | dose: 200.0 mg/kg/injection, schedule: Q04DX002 (ip), vehicle: water 109 % of control

O=C1C2CC3OC3CC2C(=O)N1CCN1C(=O)C2CC3OC3CC2C1=O (stereo not drawn)
inactive: [7] 100 % of control | [8] 104 % of control | [9] 104 % of control

C=CCNC(=S)N/N=C(/C=C/c1ccc(OC)cc1)CCN(C)C
inactive: [10] 87 % of control | [11] 89 % of control | [12] 90 % of control

CC1=C2CC(C)(C)/C=C\C(=O)/C(C)=C\C3=CC(C)(O)CC3(O2)C1=O (stereo not drawn)
inactive: dose: 0.92 mg/kg/injection, schedule: Q01DX009 (ip), vehicle: saline with Tween-80 102 % of control | dose: 1.25 mg/kg/injection, schedule: Q01DX009 (ip), vehicle: Klucel (hydroxypropylcellulose) (HPC) 109 % of control | dose: 1.84 mg/kg/injection, schedule: Q01DX009 (ip), vehicle: saline with Tween-80 98 % of control | dose: 2.5 mg/kg/injection, schedule: Q01DX009 (ip), vehicle: Klucel (hydroxypropylcellulose) (HPC) 120 % of control | dose: 3.67 mg/kg/injection, schedule: Q01DX009 (ip), vehicle: saline with Tween-80 116 % of control | dose: 5.0 mg/kg/injection, schedule: Q01DX009 (ip), vehicle: Klucel (hydroxypropylcellulose) (HPC) 118 % of control | dose: 7.34 mg/kg/injection, schedule: Q01DX009 (ip), vehicle: saline with Tween-80 118 % of control | dose: 10.0 mg/kg/injection, schedule: Q01DX009 (ip), vehicle: Klucel (hydroxypropylcellulose) (HPC) 120 % of control

CC(=O)NC(Cc1ccccc1)C(=O)NC(Cc1ccccc1)C(=O)O (stereo not drawn) (Ac-Phe-Phe-OH; configuration not given here)
inactive: [7] 107 % of control | [8] 103 % of control | [9] 94 % of control

CC1CCC(n2cnc3c(=S)nc[nH]c32)O1 (stereo not drawn)
inactive: dose: 66.0 mg/kg/injection, schedule: Q01DX009 (ip), vehicle: saline with Tween-80 104 % of control | [13] 113 % of control | [14] 109 % of control | dose: 150.0 mg/kg/injection, schedule: Q01DX009 (ip), vehicle: saline with Tween-80 90 % of control | [15] 100 % of control | [16] 118 % of control | [17] 118 % of control

C/C(=N\Nc1cc(C)nc2cc3c(cc12)OCO3)c1cn(C)n(-c2ccccc2)c1=O
inactive: dose: 3.12 mg/kg/injection, schedule: Q01DX005 (ip), vehicle: Klucel (hydroxypropylcellulose) (HPC) 97 % of control | dose: 6.25 mg/kg/injection, schedule: Q01DX005 (ip), vehicle: Klucel (hydroxypropylcellulose) (HPC) 97 % of control | dose: 12.5 mg/kg/injection, schedule: Q01DX005 (ip), vehicle: Klucel (hydroxypropylcellulose) (HPC) 103 % of control and 96 % of control | dose: 25.0 mg/kg/injection, schedule: Q01DX005 (ip), vehicle: Klucel (hydroxypropylcellulose) (HPC) 100 % of control | [4] 98 % of control and 110 % of control | [5] 109 % of control

CN=Nc1c(O)[nH]c2ccc(C)cc12
inactive: dose: 60.0 mg/kg/injection, schedule: Q01DX005 (ip), vehicle: saline with Tween-80 96 % of control | dose: 120.0 mg/kg/injection, schedule: Q01DX005 (ip), vehicle: saline with Tween-80 98 % of control | dose: 240.0 mg/kg/injection, schedule: Q01DX005 (ip), vehicle: saline with Tween-80 92 % of control

COC(=O)c1ccc(SCCC(C)=O)cc1
inactive: [18] 99 % of control | [13] 106 % of control | [15] 101 % of control

N#CC1=C(NC(N)=O)CCCC1
inactive: [19] 106 % of control | dose: 120.0 mg/kg/injection, schedule: Q01DX005 (ip), vehicle: Klucel (hydroxypropylcellulose) (HPC) 100 % of control | [20] 106 % of control

CCCCC#CCOCC(O)CCl (stereo not drawn)
inactive: dose: 12.5 mg/kg/injection, schedule: Q01DX009 (ip), vehicle: Klucel (hydroxypropylcellulose) (HPC) 100 % of control | [21] 100 % of control | dose: 50.0 mg/kg/injection, schedule: Q01DX009 (ip), vehicle: Klucel (hydroxypropylcellulose) (HPC) 98 % of control | dose: 100.0 mg/kg/injection, schedule: Q01DX009 (ip), vehicle: Klucel (hydroxypropylcellulose) (HPC) 100 % of control | dose: 200.0 mg/kg/injection, schedule: Q01DX009 (ip), vehicle: Klucel (hydroxypropylcellulose) (HPC) 103 % of control

NC(CSCc1ccccc1)C(=O)O (stereo not drawn)
inactive: dose: 50.0 mg/kg/injection, schedule: Q01DX091 (ip), vehicle: Klucel (hydroxypropylcellulose) (HPC) 100 % of control | dose: 100.0 mg/kg/injection, schedule: Q01DX091 (ip), vehicle: Klucel (hydroxypropylcellulose) (HPC) 102 % of control | dose: 200.0 mg/kg/injection, schedule: Q01DX091 (ip), vehicle: Klucel (hydroxypropylcellulose) (HPC) 91 % of control | dose: 400.0 mg/kg/injection, schedule: Q01DX091 (ip), vehicle: Klucel (hydroxypropylcellulose) (HPC) 101 % of control

O=C1CN=C(c2ccc[nH]2)c2cc(Cl)ccc2N1
inactive: [21] 120 % of control | dose: 25.0 mg/kg/injection, schedule: Q01DX009 (ip), vehicle: saline with Tween-80 109 % of control | dose: 50.0 mg/kg/injection, schedule: Q01DX001 (ip), vehicle: saline 109 % of control | [18] 100 % of control | [1] 109 % of control | [13] 104 % of control | [2] 104 % of control | [15] 118 % of control | [3] 100 % of control | dose: 400.0 mg/kg/injection, schedule: Q01DX009 (ip), vehicle: saline with Tween-80 118 % of control

CCOC(=O)C(C(=O)C(F)(F)C(F)(F)C(F)(F)C(=O)C(C(=O)OCC)=P(c1ccccc1)(c1ccccc1)c1ccccc1)=P(c1ccccc1)(c1ccccc1)c1ccccc1
inactive: [10] 108 % of control | [11] 99 % of control | [12] 108 % of control

COC(=O)C1=C(c2ccccc2)ON2C(C)(C)COC12C (stereo not drawn)
inactive: [4] 106 % of control | [5] 106 % of control | [6] 100 % of control

O=C(Nc1nnc(-c2cc(=O)c3cc(Cl)ccc3o2)s1)c1ccccc1
inactive: [7] 92 % of control | [8] 87 % of control and 88 % of control | [9] 99 % of control and 89 % of control

Cc1ccc(S(=O)(=O)CN(CN2C(=O)CCC2=O)c2ccc(Cl)cc2)cc1
inactive: dose: 15.0 mg/kg/injection, schedule: Q01DX005 (ip), vehicle: Klucel (hydroxypropylcellulose) (HPC) 101 % of control | dose: 30.0 mg/kg/injection, schedule: Q01DX005 (ip), vehicle: Klucel (hydroxypropylcellulose) (HPC) 95 % of control | [19] 91 % of control and 93 % of control | [20] 90 % of control

[Br][Pd][Br].[NH-]C1CCCC2CCC[N-]C12 (stereo not drawn)
inactive: dose: 12.5 mg/kg/injection, schedule: Q04DX002 (ip), vehicle: saline with Tween-80 93 % of control | dose: 25.0 mg/kg/injection, schedule: Q04DX002 (ip), vehicle: saline with Tween-80 93 % of control | dose: 50.0 mg/kg/injection, schedule: Q04DX002 (ip), vehicle: saline with Tween-80 98 % of control

O=[N+]([O-])c1ccc(NCCO)c([N+](=O)[O-])c1
inactive: [14] 100 % of control | [16] 100 % of control | [17] 90 % of control
